From PMC9854539, “QSAR Studies, Molecular Docking, Molecular Dynamics, Synthesis, and Biological Evaluation of Novel Quinolinone-Based Thiosemicarbazones against Mycobacterium tuberculosis” (Antibiotics, 2022)
Converted amounts (≈) assume the structure as drawn. “And” between values parts separate entries of the source, which are not always exact repeats. Identical values can stand only once.

Tests used:
[1] = tested on: M. tuberculosis H37RV strain; design: method as in earlier work; details: cited from earlier work; for MIC: observed activity of QSAR data set; for MIC exp (log (1/molarMIC)): pMIC from literature MIC in mol/L
M. bovis BCG = experiment: microbe, parasite or virus in culture; assay type: cell-based; details: for MIC: Mycobacterium tuberculosis variant bovis BCG, BCG, read-out: MIC M. bovis BCG; for Selectivity Index (SI) (SI = IC50/MIC) a: IC50 Vero / MIC M. bovis BCG
M. tuberculosis H37Rv = experiment: Spot culture growth inhibition assay (SPOTi), MIC; assay type: cell-based, Mycobacterium tuberculosis; details: for MIC: Mycobacterium tuberculosis, H37RV, SPOTi, 2–3 weeks at 37 °C; for Selectivity Index (SI) (SI = IC50/MIC) b: IC50 Vero / MIC M. tuberculosis H37Rv
M. tuberculosis Orphan = experiment: Spot culture growth inhibition assay (SPOTi), MIC; assay type: cell-based, Mycobacterium tuberculosis; details: IC50 Vero / MIC M. tuberculosis orphan
M. tuberculosis Beijing = experiment: Spot culture growth inhibition assay (SPOTi), MIC; assay type: cell-based, Mycobacterium tuberculosis; details: for Selectivity Index (SI) (SI = IC50/MIC) d: IC50 Vero / MIC M. tuberculosis Beijing
M. tuberculosis LAM 9 = experiment: Spot culture growth inhibition assay (SPOTi), MIC; assay type: cell-based, Mycobacterium tuberculosis; details: IC50 Vero / MIC M. tuberculosis LAM 9 (sit 42)
M. tuberculosis Haarlem = experiment: Spot culture growth inhibition assay (SPOTi), MIC; assay type: cell-based, Mycobacterium tuberculosis; details: IC50 Vero / MIC M. tuberculosis Haarlem
[2] = tested on: M. tuberculosis ATCC 35838; experiment: Spot culture growth inhibition assay (SPOTi), MIC; assay type: cell-based, Mycobacterium tuberculosis; details: IC50 Vero / MIC M. tuberculosis ATCC 35838 RR
[3] = tested on: M. tuberculosis ATCC 35822; experiment: Spot culture growth inhibition assay (SPOTi), MIC; assay type: cell-based, Mycobacterium tuberculosis; details: IC50 Vero / MIC M. tuberculosis ATCC 35822 RI
MTT cytotoxicity assay = details: African green monkey

## O=C(NCCNc1ccnc2cc(Cl)ccc12)Nc1ccc(Cl)cc1 [Compound 18]
[1]
  MIC: 10.65 µM (≈ 4 µg/mL)
  MIC exp (log (1/molarMIC)): 4.97

## CC1(C)CC(=O)c2c(nc3ccccc3c2-c2ccccc2)C1 [Compound 31]
[1]
  MIC: 20.74 µM (≈ 6.25 µg/mL)
  MIC exp (log (1/molarMIC)): 4.68

## Cc1nc2ccccc2c(-c2ccccc2)c1C(=O)NCc1ccccc1Cl [Compound 43]
[1]
  MIC: 64.42 µM (≈ 24.9 µg/mL)
  MIC exp (log (1/molarMIC)): 4.19

## Cc1nc2ccccc2c(-c2ccccc2)c1C(=O)Nc1ccccc1Cl [Compound 39]
[1]
  MIC: 33.53 µM and 18.42 µM
  MIC exp (log (1/molarMIC)): 4.47 and 4.73

## O=C(NNc1ccnc2cc(Cl)ccc12)c1ccccc1N=Cc1ccc(F)cc1 [Compound 20]
[1]
  MIC: 6.25 µM (≈ 2.62 µg/mL)
  MIC exp (log (1/molarMIC)): 5.2

## NNC(=O)c1ccncc1 [Isoniazid, reference compound]
M. bovis BCG
  MIC: 0.36 µM (≈ 0.0494 µg/mL)
M. tuberculosis H37Rv
  MIC: 0.36 µM (≈ 0.0494 µg/mL)

## Cc1nc2ccccc2c(-c2ccccc2)c1C(=O)Nc1ccc(F)cc1 [Compound 36]
[1]
  MIC: 16.76 µM (≈ 5.97 µg/mL)
  MIC exp (log (1/molarMIC)): 4.78

## COc1cc(C=Nc2ccccc2C(=O)NNc2ccnc3cc(Cl)ccc23)cc(OC)c1OC [Compound 24]
[1]
  MIC: 6.25 µM (≈ 3.07 µg/mL)
  MIC exp (log (1/molarMIC)): 5.20

## Cc1nc2ccccc2c(-c2ccccc2)c1C(=O)Nc1ccc(Br)cc1 [Compound 38]
[1]
  MIC: 30.92 µM (≈ 12.9 µg/mL)
  MIC exp (log (1/molarMIC)): 4.51

## O=C(NNc1ccnc2cc(Cl)ccc12)c1ccccc1N=Cc1ccc(-c2cccs2)cc1 [Compound 25]
[1]
  MIC: 6.25 µM (≈ 3.02 µg/mL)
  MIC exp (log (1/molarMIC)): 5.20

## Cc1nc2ccccc2c(-c2ccccc2)c1C(=O)NCc1ccc(C(C)(C)C)cc1 [Compound 44]
[1]
  MIC: 33.75 µM (≈ 13.8 µg/mL)
  MIC exp (log (1/molarMIC)): 4.47

## CC(/C=C/c1cc2ccc(Cl)cc2[nH]c1=O)=N\NC(N)=S [Compound 11d, (E)-2-((E)-4-(7-Chloro-2-oxo-1,2-dihydroquinolin-3-yl)but-3-en-2-ylidene)hydrazine-1-carbothioamide]
M. bovis BCG
  Selectivity Index (SI) (SI = IC50/MIC) a: 55.00
  MIC: 0.03 µM (≈ 0.00962 µg/mL)
M. tuberculosis H37Rv
  Selectivity Index (SI) (SI = IC50/MIC) b: 11.00
  MIC: 0.15 µM (≈ 0.0481 µg/mL)
M. tuberculosis Orphan
  Selectivity Index (SI) (SI = IC50/MIC) c: 0.26
M. tuberculosis Beijing
  Selectivity Index (SI) (SI = IC50/MIC) d: 5.00
M. tuberculosis LAM 9
  Selectivity Index (SI) (SI = IC50/MIC) e: 0.53
M. tuberculosis Haarlem
  Selectivity Index (SI) (SI = IC50/MIC) f: 1.06
[2]
  Selectivity Index (SI) (SI = IC50/MIC) g: 0.50
[3]
  Selectivity Index (SI) (SI = IC50/MIC) h: 0.26
other
  melting point: 246 °C
MTT cytotoxicity assay
  IC50 at 48 h: 1.65 µM

## c1ccc(-c2c3c(nc4ccccc24)CCCCC3)cc1 [Compound 29]
[1]
  MIC: 45.73 µM (≈ 12.5 µg/mL)
  MIC exp (log (1/molarMIC)): 4.34

## O=[N+]([O-])c1ccc(N2CCN(c3ccnc4cc(Cl)ccc34)CC2)c2nonc12 [Compound 19]
[1]
  MIC: 7.26 µM (≈ 2.98 µg/mL)
  MIC exp (log (1/molarMIC)): 5.13

## c1ccc(-c2cc(-c3ccccc3)c3ccccc3n2)cc1 [Compound 33]
[1]
  MIC: 11.11 µM (≈ 3.13 µg/mL)
  MIC exp (log (1/molarMIC)): 4.95

## Cc1nc2ccccc2c(-c2ccccc2)c1C(=O)Nc1ccc(Cl)cc1 [Compound 37]
[1]
  MIC: 17.54 µM (≈ 6.54 µg/mL)
  MIC exp (log (1/molarMIC)): 4.76

## CC(=O)c1c(C)nc2ccc(Cl)cc2c1-c1ccccc1 [Compound 28]
[1]
  MIC: 10.57 µM (≈ 3.13 µg/mL)
  MIC exp (log (1/molarMIC)): 4.98

## O=C(NNc1ccnc2cc(Cl)ccc12)c1ccccc1N=CC=Cc1ccccc1 [Compound 26]
[1]
  MIC: 3.12 µM (≈ 1.33 µg/mL)
  MIC exp (log (1/molarMIC)): 5.51

## Cc1nc2ccccc2c(-c2ccccc2)c1C(=O)c1ccccc1 [Compound 27]
[1]
  MIC: 19.33 µM (≈ 6.25 µg/mL)
  MIC exp (log (1/molarMIC)): 4.71

## CC1CC(=O)c2c(nc3ccccc3c2-c2ccccc2)C1 (centres unmarked) [Compound 30]
[1]
  MIC: 21.75 µM (≈ 6.25 µg/mL)
  MIC exp (log (1/molarMIC)): 4.66

## CC(/C=C/c1cc2cc(C)ccc2[nH]c1=O)=N\NC(N)=S [Compound 11b, (E)-2-((E)-4-(6-Methyl-2-oxo-1,2-dihydroquinolin-3-yl)but-3-en-2-ylidene)hydrazine-1-carbothioamide]
M. bovis BCG
  Selectivity Index (SI) (SI = IC50/MIC) a: 22.06
  MIC: 0.16 µM (≈ 0.0481 µg/mL)
M. tuberculosis H37Rv
  Selectivity Index (SI) (SI = IC50/MIC) b: 22.06
  MIC: 0.16 µM (≈ 0.0481 µg/mL)
M. tuberculosis Orphan
  Selectivity Index (SI) (SI = IC50/MIC) c: 0.11
M. tuberculosis Beijing
  Selectivity Index (SI) (SI = IC50/MIC) d: 2.13
M. tuberculosis LAM 9
  Selectivity Index (SI) (SI = IC50/MIC) e: 0.21
M. tuberculosis Haarlem
  Selectivity Index (SI) (SI = IC50/MIC) f: 1.06
[2]
  Selectivity Index (SI) (SI = IC50/MIC) g: 1.06
[3]
  Selectivity Index (SI) (SI = IC50/MIC) h: 1.06
MTT cytotoxicity assay
  IC50 at 48 h: 3.53 µM

## O=C(NNc1ccnc2cc(Cl)ccc12)c1ccccc1N=Cc1ccc(Cl)cc1Cl [Compound 22]
[1]
  MIC: 6.25 µM (≈ 2.94 µg/mL)
  MIC exp (log (1/molarMIC)): 5.20

## c1ccc(-c2cc(Cc3ccco3)nc3ccccc23)cc1 [Compound 34]
[1]
  MIC: 21.75 µM (≈ 6.21 µg/mL)
  MIC exp (log (1/molarMIC)): 4.66

## CC(/C=C/c1cc2cc(Br)ccc2[nH]c1=O)=N\NC(N)=S [Compound 11e, (E)-2-((E)-4-(6-Bromo-2-oxo-1,2-dihydroquinolin-3-yl)but-3-en-2-ylidene)hydrazine-1-carbothioamide]
M. bovis BCG
  Selectivity Index (SI) (SI = IC50/MIC) a: 16.92
  MIC: 0.13 µM (≈ 0.0475 µg/mL)
M. tuberculosis H37Rv
  Selectivity Index (SI) (SI = IC50/MIC) b: 16.92
  MIC: 0.13 µM (≈ 0.0475 µg/mL)
M. tuberculosis Orphan
  Selectivity Index (SI) (SI = IC50/MIC) c: 0.08
M. tuberculosis Beijing
  Selectivity Index (SI) (SI = IC50/MIC) d: 8.15
M. tuberculosis Beijing; M. tuberculosis Beijing
  potency relative to Oxafloxacin: tenfold more potent than Oxafloxacin
M. tuberculosis LAM 9
  Selectivity Index (SI) (SI = IC50/MIC) e: 0.80
M. tuberculosis Haarlem
  Selectivity Index (SI) (SI = IC50/MIC) f: 0.08
[2]
  Selectivity Index (SI) (SI = IC50/MIC) g: 0.81
[3]
  Selectivity Index (SI) (SI = IC50/MIC) h: 1.61
other
  melting point: 253 °C
MTT cytotoxicity assay
  IC50 at 48 h: 2.2 µM

## COc1ccc(C=Nc2ccccc2C(=O)NNc2ccnc3cc(Cl)ccc23)cc1OC [Compound 23]
[1]
  MIC: 6.25 µM (≈ 2.88 µg/mL)
  MIC exp (log (1/molarMIC)): 5.20

## O=C(NNc1ccnc2cc(Cl)ccc12)c1ccccc1N=Cc1ccc(Br)cc1 [Compound 21]
[1]
  MIC: 6.25 µM (≈ 3 µg/mL)
  MIC exp (log (1/molarMIC)): 5.2

## COc1ccc(NC(=O)c2c(C)nc3ccccc3c2-c2ccccc2)cc1 [Compound 35]
[1]
  MIC: 8.48 µM (≈ 3.12 µg/mL)
  MIC exp (log (1/molarMIC)): 5.07

## CC(/C=C/c1cc2cccc(C)c2[nH]c1=O)=N\NC(N)=S [Compound 11c, (E)-2-((E)-4-(8-Methyl-2-oxo-1,2-dihydroquinolin-3-yl)but-3-en-2-ylidene)hydrazine-1-carbothioamide]
M. bovis BCG
  Selectivity Index (SI) (SI = IC50/MIC) a: 5.75
  MIC: 0.33 µM (≈ 0.0991 µg/mL)
M. tuberculosis H37Rv
  Selectivity Index (SI) (SI = IC50/MIC) b: 11.88
  MIC: 0.16 µM (≈ 0.0481 µg/mL)
M. tuberculosis Orphan
  Selectivity Index (SI) (SI = IC50/MIC) c: 0.03
M. tuberculosis Beijing
  Selectivity Index (SI) (SI = IC50/MIC) d: 5.76
M. tuberculosis LAM 9
  Selectivity Index (SI) (SI = IC50/MIC) e: 0.58
M. tuberculosis Haarlem
  Selectivity Index (SI) (SI = IC50/MIC) f: 0.06
[2]
  Selectivity Index (SI) (SI = IC50/MIC) g: 1.14
[3]
  Selectivity Index (SI) (SI = IC50/MIC) h: 5.76
other
  melting point: 241 °C
MTT cytotoxicity assay
  IC50 at 48 h: 1.9 µM

## O=C1CC(c2ccccc2)Cc2nc3ccccc3c(-c3ccccc3)c21 (centres unmarked) [Compound 32]
[1]
  MIC: 35.77 µM (≈ 12.5 µg/mL)
  MIC exp (log (1/molarMIC)): 4.45
